These results are taken from PMC8630787 (ACS Sensors, 2021).

The IC50 is the point on the concentration scale where inhibition reaches its midpoint. High values mean lower potency, low ones higher potency.

Sequence of dihydroorotate dehydrogenase (DHODH) (Q02127 whole entry): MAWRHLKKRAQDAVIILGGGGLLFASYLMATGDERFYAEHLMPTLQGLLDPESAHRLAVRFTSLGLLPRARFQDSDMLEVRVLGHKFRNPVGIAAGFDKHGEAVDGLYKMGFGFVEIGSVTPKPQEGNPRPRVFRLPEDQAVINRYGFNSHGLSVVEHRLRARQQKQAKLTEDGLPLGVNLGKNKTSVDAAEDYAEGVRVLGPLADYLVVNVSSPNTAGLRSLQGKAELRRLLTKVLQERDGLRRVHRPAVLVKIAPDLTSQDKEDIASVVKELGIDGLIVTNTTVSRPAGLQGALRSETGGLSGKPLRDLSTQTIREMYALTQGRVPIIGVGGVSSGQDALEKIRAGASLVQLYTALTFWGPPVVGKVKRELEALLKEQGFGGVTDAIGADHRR

This assay concerns the target dihydroorotate dehydrogenase (DHODH) (Homo sapiens, UniProt Q02127). Briefly: colorimetric DCIP reduction enzyme assay ([…] DHODH, L-DHO, coenzyme Q10). The assay is classed as biochemical.
Turning to `C/C(O)=C(\C#N)C(=O)Nc1ccc(OC(F)(F)F)cc1` [CF3O-TF], half-maximal inhibition (IC50) was put at 330 nM. With `C/C(O)=C(\C#N)C(=O)Nc1ccc(S(F)(F)(F)(F)F)cc1` [SF5-TF], the IC50 stood at 580 nM. The compound `C/C(O)=C(\C#N)C(=O)Nc1cc(C(F)(F)F)cc(C(F)(F)F)c1` [di-CF3-TF] gave an IC50 of 1320 nM.
